According to the NIST ThermoML archive (doi:10.1016/j.jct.2016.06.034):

Experiment: mn = molality of the nth substance listed, in mol/kg
Conditions: for electrical conductivity / speed of sound / mass density: 84.5 kPa, Liquid; for electrical conductivity: Alternating current cell with electrodes; for speed of sound: Frequency=3 MHz, Sing-around technique in a fixed-path interferometer; for mass density: Vibrating tube method; for surface tension liquid-gas: platinum plate method

CCCCCCCCCCn1cc[n+](C)c1.[Br-] [1-decyl-3-methylimidazolium bromide] + O
Conditions	electrical conductivity [S/m]	mass density [kg/m3]	speed of sound [m/s]	surface tension liquid-gas [mN/m]
288.15 K, m1 = 1e-05	0.000112	–	–	–
288.15 K, m1 = 2e-05	0.000223	–	–	–
288.15 K, m1 = 4e-05	0.000329	–	–	–
288.15 K, m1 = 5e-05	0.000442	–	–	–
288.15 K, m1 = 8e-05	0.000678	–	–	–
288.15 K, m1 = 0.00012	0.00103	–	–	–
288.15 K, m1 = 0.00018	0.00151	–	–	–
288.15 K, m1 = 0.00026	0.00212	–	–	–
288.15 K, m1 = 0.00033	0.00273	–	–	–
288.15 K, m1 = 0.00044	0.00357	–	–	–
288.15 K, m1 = 0.00056	0.00455	–	–	–
288.15 K, m1 = 0.00075	0.006	–	–	–
288.15 K, m1 = 0.00098	0.00777	–	–	–
288.15 K, m1 = 0.00127	0.01	–	–	–
288.15 K, m1 = 0.00152	0.0119	–	–	–
288.15 K, m1 = 0.0021	0.0163	–	–	–
288.15 K, m1 = 0.00279	0.0217	–	–	–
288.15 K, m1 = 0.00349	0.027	–	–	–
288.15 K, m1 = 0.00439	0.0336	–	–	–
288.15 K, m1 = 0.00754	0.0559	–	–	–
288.15 K, m1 = 0.0095	–	999.502	1468.8	–
288.15 K, m1 = 0.01045	0.0758	–	–	–
288.15 K, m1 = 0.01291	0.0921	–	–	–
288.15 K, m1 = 0.01379	–	999.684	1469.8	–
288.15 K, m1 = 0.01562	0.11	–	–	–
288.15 K, m1 = 0.01652	–	999.799	1470.4	–
288.15 K, m1 = 0.01821	0.126	–	–	–
288.15 K, m1 = 0.0208	0.143	–	–	–
288.15 K, m1 = 0.02179	–	1000.02	1471.6	–
288.15 K, m1 = 0.02334	0.158	–	–	–
288.15 K, m1 = 0.0258	0.173	–	–	–
288.15 K, m1 = 0.02615	–	1000.2	1472.5	–
288.15 K, m1 = 0.02825	0.188	–	–	–
288.15 K, m1 = 0.03047	0.2	–	–	–
288.15 K, m1 = 0.03106	–	1000.41	1473.5	–
288.15 K, m1 = 0.03259	0.212	–	–	–
288.15 K, m1 = 0.03338	–	1000.51	1474	–
288.15 K, m1 = 0.03462	0.224	–	–	–
288.15 K, m1 = 0.03662	0.236	–	–	–
288.15 K, m1 = 0.03819	–	1000.71	1475	–
288.15 K, m1 = 0.03965	0.252	–	–	–
288.15 K, m1 = 0.0406	–	1000.81	1475.3	–
288.15 K, m1 = 0.04174	0.262	–	–	–
288.15 K, m1 = 0.04332	–	1000.92	1475.6	–
288.15 K, m1 = 0.04366	0.27	–	–	–
288.15 K, m1 = 0.04517	0.275	–	–	–
288.15 K, m1 = 0.04614	–	1001.03	1476	–
288.15 K, m1 = 0.04687	0.28	–	–	–
288.15 K, m1 = 0.04895	0.285	–	–	–
288.15 K, m1 = 0.05102	0.289	–	–	–
288.15 K, m1 = 0.05341	0.294	–	–	–
288.15 K, m1 = 0.05515	–	1001.35	1476.4	–
288.15 K, m1 = 0.05563	0.298	–	–	–
288.15 K, m1 = 0.05739	0.301	–	–	–
288.15 K, m1 = 0.05949	0.306	–	–	–
288.15 K, m1 = 0.06232	0.311	–	–	–
288.15 K, m1 = 0.06396	–	1001.66	1476.7	–
288.15 K, m1 = 0.07815	–	1002.15	1477	–
288.15 K, m1 = 0.122	–	1003.65	1477.9	–
288.15 K, m1 = 0.1726	–	1005.33	1478.9	–
288.15 K, m1 = 0.2247	–	1007.03	1480	–
288.15 K, m1 = 0.2539	–	1007.95	1480.6	–
293.15 K, m1 = 1e-05	0.00016	–	–	–
293.15 K, m1 = 3e-05	0.000289	–	–	–
293.15 K, m1 = 6e-05	0.000554	–	–	–
293.15 K, m1 = 7e-05	0.000686	–	–	–
293.15 K, m1 = 9e-05	0.00082	–	–	–
293.15 K, m1 = 0.0001	0.000947	–	–	–
293.15 K, m1 = 0.00011	0.00106	–	–	–
293.15 K, m1 = 0.00016	0.00146	–	–	–
293.15 K, m1 = 0.00025	0.00231	–	–	–
293.15 K, m1 = 0.00047	0.00432	–	–	–
293.15 K, m1 = 0.00077	0.00695	–	–	–
293.15 K, m1 = 0.0015	0.0134	–	–	–
293.15 K, m1 = 0.00805	–	–	–	56.25
293.15 K, m1 = 0.01202	–	–	–	52.74
293.15 K, m1 = 0.01627	–	–	–	49.46
293.15 K, m1 = 0.02206	–	–	–	45.32
293.15 K, m1 = 0.02718	–	–	–	42.2
293.15 K, m1 = 0.03028	–	–	–	40.63
293.15 K, m1 = 0.03568	–	–	–	38.17
293.15 K, m1 = 0.03969	–	–	–	37.78
293.15 K, m1 = 0.04205	–	–	–	37.64
293.15 K, m1 = 0.04444	–	–	–	37.78
293.15 K, m1 = 0.04581	–	–	–	37.96
293.15 K, m1 = 0.04833	–	–	–	38.56
293.15 K, m1 = 0.06141	–	–	–	39.32
293.15 K, m1 = 0.0858	–	–	–	39.48
293.15 K, m1 = 0.1481	–	–	–	39.36
293.15 K, m1 = 0.1979	–	–	–	39.38
